Measured values as given in patent US9994616B2, “c-Met protein agonist” (The University of Tokyo, priority 2013, dated 2018).
Read-outs that look alike come from different tables or passages of the source. Where a SMILES comes first, the peptide text is derived from it. Bridges are numbered along the chain shown (N, C = ends). Roman numbers before positions name the chains, in order. Where no end group is shown, it is not given here. [ ]: non-standard residue; d: D form. NMeR = CN[C@@H](CCCNC(=N)N)C(=O)O; NMeN = CN[C@@H](CC(N)=O)C(=O)O; NMeC = CN[C@@H](CS)C(=O)O; βAla = NCCC(=O)O

Experiments:
[1] = biological target: c-Met-Fc (Homo sapiens, UniProt P08581); assay: Binding ability by surface plasmon resonance (SPR, Biacore); conditions: for kon: read-out: ka
Chain of c-Met-Fc (P08581 with tags, fused parts or gaps limits assumed): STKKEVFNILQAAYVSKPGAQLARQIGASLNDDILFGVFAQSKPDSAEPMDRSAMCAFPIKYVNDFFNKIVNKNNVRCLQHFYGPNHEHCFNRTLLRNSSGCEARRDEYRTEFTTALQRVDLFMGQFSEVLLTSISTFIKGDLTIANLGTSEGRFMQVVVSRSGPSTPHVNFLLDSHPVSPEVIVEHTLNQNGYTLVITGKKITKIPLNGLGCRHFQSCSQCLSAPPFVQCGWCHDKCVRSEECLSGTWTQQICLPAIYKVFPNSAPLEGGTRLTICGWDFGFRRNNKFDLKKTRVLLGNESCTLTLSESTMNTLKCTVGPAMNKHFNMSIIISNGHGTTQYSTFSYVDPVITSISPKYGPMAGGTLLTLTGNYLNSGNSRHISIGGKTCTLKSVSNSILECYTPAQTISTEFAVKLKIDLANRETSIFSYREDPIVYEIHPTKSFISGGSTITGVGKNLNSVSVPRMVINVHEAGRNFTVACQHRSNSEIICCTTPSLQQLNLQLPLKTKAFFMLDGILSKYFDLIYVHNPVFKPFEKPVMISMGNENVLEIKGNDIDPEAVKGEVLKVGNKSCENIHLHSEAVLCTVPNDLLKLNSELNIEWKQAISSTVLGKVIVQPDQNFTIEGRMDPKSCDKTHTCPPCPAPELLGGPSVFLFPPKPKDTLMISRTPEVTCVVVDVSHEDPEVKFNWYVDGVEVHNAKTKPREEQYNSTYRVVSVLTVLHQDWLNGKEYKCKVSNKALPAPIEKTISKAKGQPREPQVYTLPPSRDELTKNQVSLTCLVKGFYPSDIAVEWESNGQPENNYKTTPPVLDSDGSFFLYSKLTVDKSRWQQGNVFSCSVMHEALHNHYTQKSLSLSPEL
Chain of c-Met-Fc (P08581 25-307 limits assumed): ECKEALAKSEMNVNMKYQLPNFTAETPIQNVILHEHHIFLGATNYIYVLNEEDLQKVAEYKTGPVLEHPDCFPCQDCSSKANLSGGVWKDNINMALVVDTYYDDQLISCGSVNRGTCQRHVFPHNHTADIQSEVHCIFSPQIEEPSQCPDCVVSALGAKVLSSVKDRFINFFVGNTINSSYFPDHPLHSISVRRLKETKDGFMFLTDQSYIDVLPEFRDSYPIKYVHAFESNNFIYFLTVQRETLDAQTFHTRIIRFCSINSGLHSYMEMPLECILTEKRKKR
Procedure: Binding ability of the thioether macrocyclic peptide was evaluated by SPR measurement using Biacore (GE Healthcare).
As a sensor chip, Sensor Chip CM5 was used and an anti-IgG antibody was immobilized on a measurement lane and a control lane by using Human Antibody Capture Kit.
On the measurement lane was immobilized c-Met-Fc, while on the control lane was immobilized Fc protein.
As a running buffer, HBS-EP+ buffer containing 0.1% DMSO was used and a dissociation constant of the thioether macrocyclic peptide was calculated at 5 different concentrations by using the single-kinetics method.

[2] = biological target: T1, c-Met (Homo sapiens, UniProt P08581); assay: Activity of dimeric peptide by ELISA (c-Met phosphorylation level in EHMES-1 cells); format: cell-based; conditions: for Activity (c-Met phosphorylation level by ELISA): Table 12, EHMES-1 cells, 10 minutes stimulation; for c-Met phosphorylation: Table 13
T1 construct: endogenous in cells; host or cells: EHMES-1 (human mesothelioma)
T1 sequence (P08581 25-1390): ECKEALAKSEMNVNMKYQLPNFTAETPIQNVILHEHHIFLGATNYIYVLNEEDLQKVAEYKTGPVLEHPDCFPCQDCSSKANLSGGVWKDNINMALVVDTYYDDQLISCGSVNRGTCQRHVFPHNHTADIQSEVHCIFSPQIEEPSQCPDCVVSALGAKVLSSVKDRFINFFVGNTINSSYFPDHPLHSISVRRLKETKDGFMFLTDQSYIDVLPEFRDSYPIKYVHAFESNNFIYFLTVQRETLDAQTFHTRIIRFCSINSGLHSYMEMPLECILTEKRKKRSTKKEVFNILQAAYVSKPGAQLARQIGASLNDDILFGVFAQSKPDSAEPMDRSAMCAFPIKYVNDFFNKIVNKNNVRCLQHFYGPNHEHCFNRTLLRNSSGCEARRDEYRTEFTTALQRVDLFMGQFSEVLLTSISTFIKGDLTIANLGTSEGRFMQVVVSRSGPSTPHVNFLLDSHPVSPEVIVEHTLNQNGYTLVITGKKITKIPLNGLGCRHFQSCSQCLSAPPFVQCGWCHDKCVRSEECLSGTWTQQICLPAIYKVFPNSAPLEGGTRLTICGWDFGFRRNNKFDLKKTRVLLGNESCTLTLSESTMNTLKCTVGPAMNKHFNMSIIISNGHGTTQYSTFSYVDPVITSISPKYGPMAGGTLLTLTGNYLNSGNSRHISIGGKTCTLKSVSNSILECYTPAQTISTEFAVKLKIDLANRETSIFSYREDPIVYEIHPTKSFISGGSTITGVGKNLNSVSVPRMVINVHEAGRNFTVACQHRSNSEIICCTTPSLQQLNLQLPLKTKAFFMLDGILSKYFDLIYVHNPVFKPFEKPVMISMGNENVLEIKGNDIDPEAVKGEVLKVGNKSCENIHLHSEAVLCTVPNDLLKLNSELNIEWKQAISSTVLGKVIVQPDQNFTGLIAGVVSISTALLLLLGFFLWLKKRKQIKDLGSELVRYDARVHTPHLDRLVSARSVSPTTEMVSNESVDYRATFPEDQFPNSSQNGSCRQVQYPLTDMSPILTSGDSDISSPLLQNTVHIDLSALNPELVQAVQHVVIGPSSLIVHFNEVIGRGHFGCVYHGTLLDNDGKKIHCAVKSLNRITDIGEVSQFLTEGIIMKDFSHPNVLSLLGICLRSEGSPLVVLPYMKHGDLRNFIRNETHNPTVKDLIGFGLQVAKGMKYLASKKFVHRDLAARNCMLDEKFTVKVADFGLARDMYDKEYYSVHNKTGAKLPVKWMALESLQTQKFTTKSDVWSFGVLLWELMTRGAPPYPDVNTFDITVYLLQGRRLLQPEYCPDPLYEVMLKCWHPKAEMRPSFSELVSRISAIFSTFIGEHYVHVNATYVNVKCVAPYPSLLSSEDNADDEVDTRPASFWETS
Procedure: Each dimeric peptide was added to human EHMES-1 cells and the mixture was incubated for 10 minutes to stimulate the cells.
As a control experiment, a recombinant human HGF protein was added and the mixture was incubated for 10 minutes to stimulate cells.
A phosphorylation level of c-Met was quantitatively analyzed using ELISA.

[3] = system: human HuCCT1 cells; assay: Cell migration of HuCCT1 cells on pore-containing plate; format: cell-based; conditions: Table 13
Procedure: In addition, human HuCCT1 cells were seeded on a pore-containing plate and cultured in a medium mixed with each of the dimeric peptides to evaluate activation of cell migration ability.

[4] = Stability of thioether macrocyclic peptide in human serum pool (LC-MS); format: in vitro ADME; conditions: for remaining at 1 h, 1 μM: Table 8; for remaining at 1 h, 1 μM / remaining at 4 h, 1 μM: human serum pool; for remaining at 1 h, 1 μM / remaining at 4 h, 1 μM / Stability in human serum (undegraded portion/time): 37° C.; for remaining at 4 h, 1 μM: Table 9; for Stability in serum (in words): human serum; for Stability in human serum (undegraded portion/time): Table 10
Procedure: A DMSO solution of the thioether macrocyclic peptide to be evaluated was dissolved in a human serum pool to give a concentration of 1 μM. The human serum pool containing the thioether macrocyclic peptide thus prepared was incubated at 37° C.
After an elapse of the evaluation time, the human serum pool containing the thioether macrocyclic peptide was placed on ice and a peptide serving as an internal standard was added and mixed to give a concentration of 1 μM. The resulting mixture was added to a solid-phase extraction column (Hyper Sep SPE column, Thermo Scientific), washed with a 5% aqueous acetonitrile solution containing 0.1% TFA, and then purified by eluting with a 70% aqueous acetonitrile solution containing 0.1% TFA.
The molecular weight of the purified product was analyzed using LC-MS and the cleavage site in the serum was identified. In addition, the thioether macrocyclic peptide which had remained without being cleaved was quantitatively determined by comparing an amount relative to the internal standard at every incubation time.

[5] = Table 11, monomer and dimeric peptides

Compound	ka [1, 5]	kd [1, 5]	Activity (c-Met phosphorylation level by ELISA) [2]	c-Met phosphorylation [2]	kd ([1]; Table 8, c-Met-Fc)	kon ([1]; Table 8, c-Met-Fc)	remaining at 1 h, 1 μM [4]	remaining at 4 h, 1 μM ([4]; 4 h)	Stability in serum (in words) [4]	Cell migration [3]	also measured
D4-3 Bis-MAL-PEG11: dimeric peptide: two D4-3 macrocycles linked through C-terminal Cys by Bis-MAL-PEG11 linker ({CH2CO}-[dY]RQFNRRTHEVWNLDCGC; thioether N-16; not fully specified (residue 18); also: dimer: two copies joined by Bis-MAL-PEG11, linker at 18 via Bis-MAL-PEG11, other end not in the chain)	1.2 10^6 M^−1s^−1	0.11 10^−2 s^−1	High	Promote						Activate	
L5-2 Bis-MAL-PEG3: dimeric peptide: two L5-2 macrocycles linked through C-terminal Cys by Bis-MAL-PEG3 linker ({CH2CO}-YISWNEFNSPNWRFITCG[βAla]C-NH2; thioether N-17; not fully specified (residue 20); also: dimer: two copies joined by Bis-MAL-PEG3, linker at 20 via Bis-MAL-PEG3, other end not in the chain)	0.22 10^6 M^−1s^−1	0.042 10^−2 s^−1	High	Promote						Activate	
CC[C@H](C)[C@@H]1NC(=O)[C@H](Cc2ccc(O)cc2)NC(=O)CSC[C@@H](C(=O)NCC(N)=O)NC(=O)[C@H]([C@@H](C)O)NC(=O)[C@H]([C@@H](C)CC)NC(=O)[C@H](Cc2ccccc2)NC(=O)[C@H](CCCNC(=N)N)NC(=O)[C@H](Cc2c[nH]c3ccccc23)NC(=O)[C@H](CC(N)=O)NC(=O)[C@@H]2CCCN2C(=O)[C@H](CO)NC(=O)[C@H](CC(N)=O)NC(=O)[C@H](Cc2ccccc2)NC(=O)[C@H](CCC(=O)O)NC(=O)[C@H](CC(N)=O)NC(=O)[C@H](Cc2c[nH]c3ccccc23)NC(=O)[C@H](CO)NC1=O [Peptide L5-2] ({CH2CO}-YISWNEFNSPNWRFITCG-NH2; thioether N-17)											Kd ([1]; Table 10, c-Met-Fc): 5.4 nM; kon ([1]; Table 10, c-Met-Fc): 2.3e+06 M⁻¹ s⁻¹; Stability in human serum (undegraded portion/time) ([4]; 2 h): 71%/2 h
C[C@@H]1NC(=O)[C@H](Cc2ccc(O)cc2)NC(=O)[C@H](Cc2ccc(O)cc2)NC(=O)[C@H](Cc2c[nH]c3ccccc23)NC(=O)[C@@H](Cc2ccc(O)cc2)NC(=O)CSC[C@@H](C(=O)NCC(N)=O)NC(=O)[C@@H]2CCCN2C(=O)[C@H](Cc2ccccc2)NC(=O)[C@H](C)NC(=O)[C@H](CCCCN)NC(=O)[C@H](Cc2ccc(O)cc2)NC(=O)[C@H]([C@@H](C)O)NC(=O)[C@H](CCC(N)=O)NC(=O)[C@H](CC(=O)O)NC(=O)[C@H](Cc2c[nH]c3ccccc23)NC1=O [Peptide D5-4] ({CH2CO}-[dY]WYYAWDQTYKAFPCG-NH2; thioether N-15)											Kd ([1]; Table 10, c-Met-Fc): 4.6 nM; kon ([1]; Table 10, c-Met-Fc): 4.5e+06 M⁻¹ s⁻¹; Stability in human serum (undegraded portion/time) ([4]; 2 h): 97%/2 h
D5-4 Bis-MAL-PEG11: dimeric peptide: two D5-4 macrocycles linked through C-terminal Cys by Bis-MAL-PEG11 linker (peptide 1 {CH2CO}-[dY]WYYAWDQTYKAFPCG; peptide 2 {CH2CO}-[dY]WYYAWDQTYKAFPCG; thioether I:N-I:15, II:N-II:15; not fully specified (C-terminus); also: dimer: two chains joined by Bis-MAL-PEG11 through an added C-terminal Cys not in the letters)	5.3 10^6 M^−1s^−1	1.1 10^−2 s^−1	High	Promote						Activate	
CC(C)C[C@@H]1NC(=O)[C@H](CC(N)=O)NC(=O)[C@H](Cc2c[nH]c3ccccc23)NC(=O)[C@H](C(C)C)NC(=O)[C@H](CCC(=O)O)NC(=O)[C@H](Cc2c[nH]cn2)NC(=O)[C@H]([C@@H](C)O)NC(=O)[C@H](CCCNC(=N)N)NC(=O)[C@H](CCCNC(=N)N)N(C)C(=O)[C@H](CC(N)=O)NC(=O)[C@H](Cc2ccccc2)NC(=O)[C@H](CCC(N)=O)NC(=O)[C@H](CCCNC(=N)N)NC(=O)[C@@H](Cc2ccc(O)cc2)NC(=O)CSC[C@@H](C(=O)NCC(N)=O)N(C)C(=O)[C@H](CC(=O)O)NC1=O [Peptide D4-3NMe] ({CH2CO}-[dY]RQFN[NMeR]RTHEVWNLD[NMeC]G-NH2; thioether N-16)								63%	considerably excellent		Kd ([1]; Table 9, c-Met-Fc): 5.2 nM; kon ([1]; Table 9, c-Met-Fc): 390000 M⁻¹ s⁻¹; Stability in human serum (undegraded portion/time) ([4]; 4 h): 67%/4 h

Continued, in another order:

ka [1, 5]	kd [1, 5]	Activity (c-Met phosphorylation level by ELISA) [2]	c-Met phosphorylation [2]	kd ([1]; Table 8, c-Met-Fc)	kon ([1]; Table 8, c-Met-Fc)	remaining at 1 h, 1 μM [4]	remaining at 4 h, 1 μM ([4]; 4 h)	Stability in serum (in words) [4]	Compound	Cell migration [3]	also measured
				0.41 10^−2 s^−1	120000 M⁻¹ s⁻¹	85%	67%	drastically improved	CC(C)C[C@@H]1NC(=O)[C@H](CC(N)=O)NC(=O)[C@H](Cc2c[nH]c3ccccc23)NC(=O)[C@H](C(C)C)NC(=O)[C@H](CCC(=O)O)NC(=O)[C@H](Cc2c[nH]cn2)NC(=O)[C@H]([C@@H](C)O)NC(=O)[C@H](CCCNC(=N)N)NC(=O)[C@H](CCCNC(=N)N)N(C)C(=O)[C@H](CC(N)=O)NC(=O)[C@H](Cc2ccccc2)NC(=O)[C@H](CCC(N)=O)NC(=O)[C@H](CCCNC(=N)N)NC(=O)[C@@H](Cc2ccc(O)cc2)NC(=O)CSC[C@@H](C(=O)NCC(N)=O)NC(=O)[C@H](CC(=O)O)NC1=O [Peptide N6] ({CH2CO}-[dY]RQFN[NMeR]RTHEVWNLDCG-NH2; thioether N-16; C-terminus assumed)		Binding ability (in words) [1]: do not show marked deterioration; ka ([1]; Table 9, c-Met-Fc): 1.2 10^5 M^−1s^−1; kd ([1]; Table 9, c-Met-Fc): 0.41 10^−2s^−1
				1.0 10^−2 s^−1	980000 M⁻¹ s⁻¹	12%	< 12%		CC(C)C[C@@H]1NC(=O)[C@H](CC(N)=O)NC(=O)[C@H](Cc2c[nH]c3ccccc23)NC(=O)[C@H](C(C)C)NC(=O)[C@H](CCC(=O)O)NC(=O)[C@H](Cc2c[nH]cn2)NC(=O)[C@H]([C@@H](C)O)NC(=O)[C@H](CCCNC(=N)N)NC(=O)[C@H](CCCNC(=N)N)NC(=O)[C@H](CC(N)=O)NC(=O)[C@H](Cc2ccccc2)NC(=O)[C@H](CCC(N)=O)NC(=O)[C@H](CCCNC(=N)N)NC(=O)[C@@H](Cc2ccc(O)cc2)NC(=O)CSC[C@@H](C(=O)NCC(N)=O)N(C)C(=O)[C@H](CC(=O)O)NC1=O [Peptide N16] ({CH2CO}-[dY]RQFNRRTHEVWNLD[NMeC]G-NH2; thioether N-16; C-terminus assumed)		ka ([1]; Table 9, c-Met-Fc): 9.8 10^5 M^−1s^−1; kd ([1]; Table 9, c-Met-Fc): 1.0 10^−2s^−1
				6.9 10^−2 s^−1	53000 M⁻¹ s⁻¹	92%		drastically improved	CC(C)C[C@@H]1NC(=O)[C@H](CC(N)=O)NC(=O)[C@H](Cc2c[nH]c3ccccc23)NC(=O)[C@H](C(C)C)NC(=O)[C@H](CCC(=O)O)NC(=O)[C@H](Cc2c[nH]cn2)NC(=O)[C@H]([C@@H](C)O)NC(=O)[C@H](CCCNC(=N)N)N(C)C(=O)[C@H](CCCNC(=N)N)NC(=O)[C@H](CC(N)=O)NC(=O)[C@H](Cc2ccccc2)NC(=O)[C@H](CCC(N)=O)NC(=O)[C@H](CCCNC(=N)N)NC(=O)[C@@H](Cc2ccc(O)cc2)NC(=O)CSC[C@@H](C(=O)NCC(N)=O)NC(=O)[C@H](CC(=O)O)NC1=O [Peptide N7] ({CH2CO}-[dY]RQFNR[NMeR]THEVWNLDCG-NH2; thioether N-16; C-terminus assumed)		Binding ability (in words) [1]: do not show marked deterioration
					78000 M⁻¹ s⁻¹	4.5%			CC(C)C[C@@H]1NC(=O)[C@H](CC(N)=O)N(C)C(=O)[C@H](Cc2c[nH]c3ccccc23)NC(=O)[C@H](C(C)C)NC(=O)[C@H](CCC(=O)O)NC(=O)[C@H](Cc2c[nH]cn2)NC(=O)[C@H]([C@@H](C)O)NC(=O)[C@H](CCCNC(=N)N)NC(=O)[C@H](CCCNC(=N)N)NC(=O)[C@H](CC(N)=O)NC(=O)[C@H](Cc2ccccc2)NC(=O)[C@H](CCC(N)=O)NC(=O)[C@H](CCCNC(=N)N)NC(=O)[C@@H](Cc2ccc(O)cc2)NC(=O)CSC[C@@H](C(=O)NCC(N)=O)NC(=O)[C@H](CC(=O)O)NC1=O [Peptide N13] ({CH2CO}-[dY]RQFNRRTHEVW[NMeN]LDCG-NH2; thioether N-16; C-terminus assumed)		
